In PMC4503722, “Novel Phenotypic Outcomes Identified for a Public Collection of Approved Drugs from a Publicly Accessible Panel of Assays” (PLoS ONE, 2015):
Read-outs that look alike come from different tables or passages of the source.

Legend:
INS-1E cells [1] = assay type: cell-based, rat
INS-1E cells [2] = assay: cells; assay type: cell-based, rat
hKDR = molecular target: T1, hKDR (Homo sapiens, UniProt P35968); assay: Cerep LANCE kinase assay hKDR (S1 assay 32); assay type: biochemical
T1 construct: purchased Cerep (LANCE kinase assay platform, contract assay)
T1 sequence (P35968 20-1356): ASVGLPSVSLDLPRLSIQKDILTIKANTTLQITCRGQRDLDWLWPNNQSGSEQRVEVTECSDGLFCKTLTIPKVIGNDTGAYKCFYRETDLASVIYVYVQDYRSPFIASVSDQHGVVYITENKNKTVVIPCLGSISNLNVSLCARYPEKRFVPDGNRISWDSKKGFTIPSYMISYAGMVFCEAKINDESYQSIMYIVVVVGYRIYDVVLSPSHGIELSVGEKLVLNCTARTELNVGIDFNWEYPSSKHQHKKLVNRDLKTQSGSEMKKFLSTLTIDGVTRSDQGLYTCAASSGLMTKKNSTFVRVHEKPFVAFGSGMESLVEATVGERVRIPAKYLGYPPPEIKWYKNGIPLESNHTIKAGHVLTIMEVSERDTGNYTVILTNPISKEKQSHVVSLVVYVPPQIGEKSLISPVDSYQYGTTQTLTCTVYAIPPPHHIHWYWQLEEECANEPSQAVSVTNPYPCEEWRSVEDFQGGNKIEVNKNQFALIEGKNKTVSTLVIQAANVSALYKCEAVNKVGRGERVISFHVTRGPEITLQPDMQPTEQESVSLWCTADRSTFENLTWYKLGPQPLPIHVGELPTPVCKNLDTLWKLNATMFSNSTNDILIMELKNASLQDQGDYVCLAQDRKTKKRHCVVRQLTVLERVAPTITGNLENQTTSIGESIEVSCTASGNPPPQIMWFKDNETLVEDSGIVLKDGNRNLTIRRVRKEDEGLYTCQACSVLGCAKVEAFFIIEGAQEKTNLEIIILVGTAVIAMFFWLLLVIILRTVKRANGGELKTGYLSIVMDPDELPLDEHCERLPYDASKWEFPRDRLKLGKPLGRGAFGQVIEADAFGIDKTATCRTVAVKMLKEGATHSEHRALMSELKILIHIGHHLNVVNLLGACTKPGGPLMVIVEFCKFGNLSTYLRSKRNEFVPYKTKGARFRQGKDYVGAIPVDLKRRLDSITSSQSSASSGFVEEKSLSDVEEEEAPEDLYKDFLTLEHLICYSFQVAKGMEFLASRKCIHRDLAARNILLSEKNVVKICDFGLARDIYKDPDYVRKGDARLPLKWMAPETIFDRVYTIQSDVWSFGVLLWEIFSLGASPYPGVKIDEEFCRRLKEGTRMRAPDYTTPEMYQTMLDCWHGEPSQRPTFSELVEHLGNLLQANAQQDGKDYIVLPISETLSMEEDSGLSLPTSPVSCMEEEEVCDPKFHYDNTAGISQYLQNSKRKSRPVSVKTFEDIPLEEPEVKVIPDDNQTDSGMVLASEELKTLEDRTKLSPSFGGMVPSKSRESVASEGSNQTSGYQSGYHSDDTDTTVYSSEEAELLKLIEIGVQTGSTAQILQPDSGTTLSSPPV

Colo320 = assay: cells; assay type: cell-based; conditions: basal
SNU-C1 = assay: cells; assay type: cell-based
HCT116 = assay: cells; assay type: cell-based
HT-29 = assay: cells; assay type: cell-based
[3] = tested on: nuclear β-catenin in C2C12 cells; assay: cells; assay type: cell-based; conditions: concentration response
SW480 = assay: cells; assay type: cell-based
[4] = tested on: HCT116 cells treated with a GSK3β inhibitor; assay: cells; assay type: cell-based
hGSK3b = molecular target: T2, hGSK3b (Homo sapiens, UniProt P49841); assay: Cerep LANCE kinase assay hGSK3b (S1 assay 34); assay type: biochemical
T2 construct: purchased Cerep (LANCE kinase assay platform, contract assay)
T2 sequence (P49841 whole entry): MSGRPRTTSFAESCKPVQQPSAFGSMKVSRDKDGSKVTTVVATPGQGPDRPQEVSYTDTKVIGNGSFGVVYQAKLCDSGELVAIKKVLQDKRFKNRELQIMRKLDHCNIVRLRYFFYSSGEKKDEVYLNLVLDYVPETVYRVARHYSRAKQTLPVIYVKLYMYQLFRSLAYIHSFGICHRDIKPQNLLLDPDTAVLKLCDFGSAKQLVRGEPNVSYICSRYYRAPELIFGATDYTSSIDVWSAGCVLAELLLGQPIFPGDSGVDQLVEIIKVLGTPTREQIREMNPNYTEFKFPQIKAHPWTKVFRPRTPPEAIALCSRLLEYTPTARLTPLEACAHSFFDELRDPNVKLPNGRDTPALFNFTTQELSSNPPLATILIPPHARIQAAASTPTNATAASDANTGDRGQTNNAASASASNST

DLD-1 = assay: cells; assay type: cell-based
STC-1 cell line = assay type: cell-based, mouse; conditions: concentration response
hJAK2 = molecular target: T3, hJAK2 (Homo sapiens, UniProt O60674); assay: Cerep LANCE kinase assay hJAK2 (S1 assay 33); assay type: biochemical
T3 construct: purchased Cerep (LANCE kinase assay platform, contract assay)
T3 sequence (O60674 whole entry): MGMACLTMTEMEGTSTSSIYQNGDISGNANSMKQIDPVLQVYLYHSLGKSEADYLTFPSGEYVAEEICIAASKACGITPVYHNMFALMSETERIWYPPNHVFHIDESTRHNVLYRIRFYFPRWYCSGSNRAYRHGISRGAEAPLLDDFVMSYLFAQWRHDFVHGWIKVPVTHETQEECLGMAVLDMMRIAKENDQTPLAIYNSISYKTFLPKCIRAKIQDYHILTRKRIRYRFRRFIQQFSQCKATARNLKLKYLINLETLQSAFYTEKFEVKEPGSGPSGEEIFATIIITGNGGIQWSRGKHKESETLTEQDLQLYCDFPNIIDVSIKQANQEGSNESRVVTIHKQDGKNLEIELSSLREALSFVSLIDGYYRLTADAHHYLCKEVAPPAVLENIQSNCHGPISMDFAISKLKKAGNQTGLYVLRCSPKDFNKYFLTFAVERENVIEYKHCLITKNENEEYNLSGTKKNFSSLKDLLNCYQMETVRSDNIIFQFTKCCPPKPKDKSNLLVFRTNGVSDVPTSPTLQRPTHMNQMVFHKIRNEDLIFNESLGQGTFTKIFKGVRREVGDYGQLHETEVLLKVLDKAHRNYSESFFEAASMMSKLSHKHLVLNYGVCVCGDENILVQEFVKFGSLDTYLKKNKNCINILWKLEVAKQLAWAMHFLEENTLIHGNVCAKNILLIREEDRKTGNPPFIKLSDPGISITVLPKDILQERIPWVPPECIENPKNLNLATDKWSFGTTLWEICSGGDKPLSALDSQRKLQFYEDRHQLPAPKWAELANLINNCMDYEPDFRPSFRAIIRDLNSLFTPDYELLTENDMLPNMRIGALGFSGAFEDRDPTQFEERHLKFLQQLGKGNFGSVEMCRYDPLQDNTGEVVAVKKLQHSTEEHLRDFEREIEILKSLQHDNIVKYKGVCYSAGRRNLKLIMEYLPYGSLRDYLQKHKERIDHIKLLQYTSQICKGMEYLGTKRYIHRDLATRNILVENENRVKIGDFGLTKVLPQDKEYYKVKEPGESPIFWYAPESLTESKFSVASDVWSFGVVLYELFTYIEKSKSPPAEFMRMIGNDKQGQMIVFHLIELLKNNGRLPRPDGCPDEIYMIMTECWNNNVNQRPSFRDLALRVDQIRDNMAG

HeLa cells = assay: cells; assay type: cell-based
[5] = tested on: ECFC/ADSC co-culture cell nuclei number
[6] = tested on: endothelial tube formation in co-cultures of ECFCs and ADSCs treated with VEGF; assay: cells; assay type: cell-based, human
hp70S6K1 (RPS6KB1) = molecular target: T4, hp70S6K1 (RPS6KB1) (Homo sapiens, UniProt P23443); assay: Cerep LANCE kinase assay hp70S6K1 (S1 assay 31); assay type: biochemical
T4 construct: purchased Cerep (LANCE kinase assay platform, contract assay)
T4 sequence (P23443 whole entry): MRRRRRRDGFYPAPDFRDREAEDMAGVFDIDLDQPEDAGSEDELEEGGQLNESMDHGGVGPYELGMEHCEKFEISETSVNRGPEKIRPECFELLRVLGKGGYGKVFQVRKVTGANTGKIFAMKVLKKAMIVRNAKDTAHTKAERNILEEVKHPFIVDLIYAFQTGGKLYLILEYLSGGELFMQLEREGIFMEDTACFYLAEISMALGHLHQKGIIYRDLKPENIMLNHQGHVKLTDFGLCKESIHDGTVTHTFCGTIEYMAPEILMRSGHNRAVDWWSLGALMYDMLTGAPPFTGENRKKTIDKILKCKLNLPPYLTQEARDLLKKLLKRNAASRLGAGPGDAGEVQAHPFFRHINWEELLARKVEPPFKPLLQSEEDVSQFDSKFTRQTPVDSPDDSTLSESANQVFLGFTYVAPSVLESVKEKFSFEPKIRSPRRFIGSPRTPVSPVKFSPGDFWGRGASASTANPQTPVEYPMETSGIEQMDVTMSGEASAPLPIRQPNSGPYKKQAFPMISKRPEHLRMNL

NCI-H716 cells = assay: cells; assay type: cell-based, Human; conditions: concentration response
RKO = assay: cells; assay type: cell-based
[7] = tested on: alkaline phosphatase (ALP) activity in C2C12 cells; assay type: cell-based; conditions: concentration response
hFLT3 = molecular target: T5, hFLT3 (Homo sapiens, UniProt P36888); assay: Cerep LANCE kinase assay hFLT3 (S1 assay 35); assay type: biochemical
T5 construct: purchased Cerep (LANCE kinase assay platform, contract assay)
T5 sequence (P36888 27-993): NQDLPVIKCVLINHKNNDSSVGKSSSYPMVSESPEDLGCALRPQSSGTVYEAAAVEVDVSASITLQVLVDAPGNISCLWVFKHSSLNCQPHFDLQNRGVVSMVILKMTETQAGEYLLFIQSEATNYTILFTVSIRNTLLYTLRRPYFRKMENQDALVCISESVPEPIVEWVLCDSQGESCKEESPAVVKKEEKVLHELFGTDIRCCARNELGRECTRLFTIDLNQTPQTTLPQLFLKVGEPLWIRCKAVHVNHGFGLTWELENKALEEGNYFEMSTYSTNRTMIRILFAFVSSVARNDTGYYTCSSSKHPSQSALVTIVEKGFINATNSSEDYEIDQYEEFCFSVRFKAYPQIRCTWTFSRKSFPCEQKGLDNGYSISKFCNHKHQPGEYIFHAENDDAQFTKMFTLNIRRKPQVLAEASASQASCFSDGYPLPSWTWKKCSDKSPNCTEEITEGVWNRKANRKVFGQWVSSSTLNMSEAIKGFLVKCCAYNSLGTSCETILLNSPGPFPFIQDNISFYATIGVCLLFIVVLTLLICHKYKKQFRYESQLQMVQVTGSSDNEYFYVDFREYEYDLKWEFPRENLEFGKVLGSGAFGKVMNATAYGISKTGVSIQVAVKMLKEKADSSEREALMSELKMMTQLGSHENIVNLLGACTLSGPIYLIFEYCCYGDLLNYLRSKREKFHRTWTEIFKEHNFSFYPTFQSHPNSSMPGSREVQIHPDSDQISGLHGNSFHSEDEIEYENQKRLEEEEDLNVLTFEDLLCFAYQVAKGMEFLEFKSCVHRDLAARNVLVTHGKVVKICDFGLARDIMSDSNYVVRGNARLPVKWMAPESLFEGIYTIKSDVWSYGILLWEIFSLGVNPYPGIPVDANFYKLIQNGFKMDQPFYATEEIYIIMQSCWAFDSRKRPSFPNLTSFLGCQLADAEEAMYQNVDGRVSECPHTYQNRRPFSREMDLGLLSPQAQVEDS
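Wherever 5mMGluc INS1E SecretionMod IC50/EC50 is given: secreted insulin quantified by homogeneous immunoassay.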

Compound: CC(C)(C)c1nnc(NS(=O)(=O)c2ccccc2)s1 [NCGC00182991-01]
- 0.1mMGluc_INS1E SecretionMod Act IC50/EC50 (INS-1E cells [1]; assay number 9, 0.1 mM glucose): > 33.33 µM
- 5mMGluc_INS1E SecretionMod IC50/EC50 (INS-1E cells [2]; assay number 8, 5 mM glucose): 13.1318 µM

Compound: Cl.N[C@@H]1C[C@H]1c1ccccc1 [NCGC00016598-02]
- 0.1mMGluc_INS1E SecretionMod Act IC50/EC50 (INS-1E cells [1]; assay number 9, 0.1 mM glucose): > 33.33 µM
- 5mMGluc_INS1E SecretionMod IC50/EC50 (INS-1E cells [2]; assay number 8, 5 mM glucose): > 33.33 µM

Compound: CN(C)CC[C@@H](c1ccc(Br)cc1)c1ccccn1.O=C(O)/C=C\C(=O)O [NCGC00015146-11]
- 0.1mMGluc_INS1E SecretionMod Act IC50/EC50 (INS-1E cells [1]; assay number 9, 0.1 mM glucose): 6.368 µM
- 5mMGluc_INS1E SecretionMod IC50/EC50 (INS-1E cells [2]; assay number 8, 5 mM glucose): 3.76 µM

Compound: COC(=O)Nc1nc2ccc(Sc3ccccc3)cc2[nH]1 [NCGC00016855-10]
- IC50/EC50, hKDR LANCE (assay number 32) (hKDR): > 20 µM
- IC50/EC50, Basal_Viability ATP Colo 320 (assay number 27) (Colo320): > 20 µM
- IC50/EC50, Basal_Viability ATP SNU-C1 (assay number 30) (SNU-C1; basal): > 20 µM
- IC50/EC50, Basal_Viability ATP HCT116 (assay number 25) (HCT116; basal): 0.001 µM
- IC50/EC50, Basal_Viability ATP HT-29 (assay number 28) (HT-29; basal): > 20 µM
- IC50/EC50, WntCondMedia_bCatenin C2C12 (assay number 5) [3]: 4.8413 µM
- IC50/EC50, Basal_Viability ATP SW480 (assay number 24) (SW480; basal): > 20 µM
- IC50/EC50, GSK3b inh pretreated_Viability ATP HCT116 (assay number 26) ([4]; GSK3b inh pretreated): 0.003 µM
- IC50/EC50, hGSK3b LANCE (assay number 34) (hGSK3b): > 20 µM
- IC50/EC50, Basal_Viability ATP DLD-1 (assay number 23) (DLD-1; basal): 0.06726 µM
- IC50/EC50, mSTC-1 GLP1 Secretion (assay number 13) (STC-1 cell line): > 20 µM
- IC50/EC50, hJAK2 LANCE (assay number 33) (hJAK2): > 20 µM
- IC50/EC50, Hela CellCycMod PI 2N (assay number 14) (HeLa cells; 2N): 0.2042 µM
- IC50/EC50, Hela CellCycMod PI 4N (assay number 16) (HeLa cells; 4N): 0.195 µM
- IC50/EC50, Hela CellCycMod PI Cell Number (assay number 18) (HeLa cells; Cell Number): 0.0097 µM
- IC50/EC50, Hela CellCycMod PI MI (assay number 17) (HeLa cells; MI): 0.2276 µM
- IC50/EC50, Hela CellCycMod PI S Phase (assay number 15) (HeLa cells; S Phase): > 10 µM
- IC50/EC50, VEGF_ADSC\ECFC Angio Hoechst NucArea (assay number 3) [5]: > 10 µM
- IC50/EC50, VEGF_ADSC\ECFC Angio CD31 TubeArea (assay number 2) [6]: 0.2067 µM
- IC50/EC50, hp70S6K1 LANCE (assay number 31) (hp70S6K1 (RPS6KB1)): > 20 µM
- IC50/EC50, hNCI-H716 GLP1 Secretion (assay number 12) (NCI-H716 cells): > 40 µM
- IC50/EC50, Basal_Viability ATP RKO (assay number 29) (RKO; basal): 0.001 µM
- IC50/EC50, WntCondMedia_Alk Phos C2C12 (assay number 6) [7]: 0.4382 µM
- IC50/EC50, hFLT3 LANCE (assay number 35) (hFLT3): > 20 µM

Compound: Oc1ccc(CCNCCCCCCNCCc2ccccc2)cc1O [NCGC00184998-02]
- 0.1mMGluc_INS1E SecretionMod Act IC50/EC50 (INS-1E cells [1]; assay number 9, 0.1 mM glucose): > 33.33 µM
- 5mMGluc_INS1E SecretionMod IC50/EC50 (INS-1E cells [2]; assay number 8, 5 mM glucose): > 33.33 µM

Compound: Cc1c(C)n(Cc2ccccc2)c2ccc(C(=O)OCCN(C)C)cc12 [NCGC00160412-04]
- 0.1mMGluc_INS1E SecretionMod Act IC50/EC50 (INS-1E cells [1]): 14.9139 µM
- Basal_Viability ATP SNU-C1 IC50/EC50 (SNU-C1): 11.9645 µM
- Basal_Viability ATP HCT116 IC50/EC50 (HCT116): 11.7611 µM
- Basal_Viability ATP HT-29 IC50/EC50 (HT-29): > 6.6667 µM
- Basal_Viability ATP SW480 IC50/EC50 (SW480): 8.7786 µM
- GSK3b inh pretreated_Viability ATP HCT116 IC50/EC50 [4]: 5.474 µM
- 5mMGluc_INS1E SecretionMod IC50/EC50 (INS-1E cells [2]): 3.845 µM
- Basal_Viability ATP DLD-1 IC50/EC50 (DLD-1): 11.2721 µM
- Basal_Viability ATP RKO IC50/EC50 (RKO): 12.7694 µM

Compound: Cc1cc2c(OCC(CNC(C)(C)C)OC(=O)c3ccccc3)cccc2[nH]1 (centres unmarked) [NCGC00263654-01]
- 0.1mMGluc_INS1E SecretionMod Act IC50/EC50 (INS-1E cells [1]; assay number 9, 0.1 mM glucose): > 33.33 µM
- 5mMGluc_INS1E SecretionMod IC50/EC50 (INS-1E cells [2]; assay number 8, 5 mM glucose): 14.6026 µM

Compound: CCOc1cc(CC(=O)N[C@@H](CC(C)C)c2ccccc2N2CCCCC2)ccc1C(=O)O [NCGC00016978-04]
- 0.1mMGluc_INS1E SecretionMod Act IC50/EC50 (INS-1E cells [1]; assay number 9, 0.1 mM glucose): 0.1358 µM
- 5mMGluc_INS1E SecretionMod IC50/EC50 (INS-1E cells [2]; assay number 8, 5 mM glucose): 0.02704 µM

Compound: CC(C)(Cc1c[nH]c2ccccc12)NCC(O)COc1ccccc1C#N (centres unmarked) [NCGC00167817-02]
- 0.1mMGluc_INS1E SecretionMod Act IC50/EC50 (INS-1E cells [1]; assay number 9, 0.1 mM glucose): > 33.33 µM
- 5mMGluc_INS1E SecretionMod IC50/EC50 (INS-1E cells [2]; assay number 8, 5 mM glucose): 15.0119 µM

Compound: CCCCN1CCCCC1C(=O)Nc1c(C)cccc1C (centres unmarked) [NCGC00178579-04]
- 0.1mMGluc_INS1E SecretionMod Act IC50/EC50 (INS-1E cells [1]; assay number 9, 0.1 mM glucose): > 33.33 µM
- 5mMGluc_INS1E SecretionMod IC50/EC50 (INS-1E cells [2]; assay number 8, 5 mM glucose): 27.1706 µM

Compound: CN(C)CCOC(c1ccc(Cl)cc1)c1ccccn1 (centres unmarked) [NCGC00166141-06]
- 0.1mMGluc_INS1E SecretionMod Act IC50/EC50 (INS-1E cells [1]; assay number 9, 0.1 mM glucose): > 33.33 µM
- 5mMGluc_INS1E SecretionMod IC50/EC50 (INS-1E cells [2]; assay number 8, 5 mM glucose): 21.3759 µM

Compound: COc1cc(C(=O)OCCCN2CCCN(CCCOC(=O)c3cc(OC)c(OC)c(OC)c3)CC2)cc(OC)c1OC [NCGC00016747-07]
- 0.1mMGluc_INS1E SecretionMod Act IC50/EC50 (INS-1E cells [1]; assay number 9, 0.1 mM glucose): 18.0188 µM
- 5mMGluc_INS1E SecretionMod IC50/EC50 (INS-1E cells [2]; assay number 8, 5 mM glucose): 10.1571 µM
